Assays:
[1] = system: HCV luciferase-bearing mutant replicon, NS3 A156T, in cured GS4.1 cells; assay: Luciferase replicon transient transfection assay, A156T mutant replicon; format: cell-based
Protocol: The luciferase replicon transient transfection assay measures the ability of a test compound to inhibit the replication of a transiently-transfected HCV luciferase-bearing wild-type or mutant replicon in cured human hepatoma cells (cured GS4.1). The mutant replicons bear a specific single-site mutation in NS3 that is known to confer resistance to protease inhibitors currently in development. The inhibition of HCV replication was measured by quantification of luciferase protein expression. This assay has been validated using a panel of replicons bearing known protease inhibitor resistance mutations and their respective reference compounds. Briefly, subconfluent cured GS4.1 cells in OptiBuffer (ThermoElectron Corp.) were electroporated with 40 μg of wild-type or mutant luciferase-bearing HCV replicon RNA. The cells were then seeded in 96-well opaque white plates at 2.4×10^4 cells/well in 150 μL/well and incubated for 4 hours at 37° C./5% CO2. […] The plates were agitated on a rotating platform at room temperature for 3 minutes and read in a Victor^3V microplate reader (Perkin-Elmer) using a 700 nm cut-off filter with a 1 second read time. EC50 values were calculated from dose response curves from the resulting best-fit equations determined by Microsoft Excel and XLfit 4.1 software.

[2] = target: T1, HCV NS3-NS4A protease (Hepatitis C virus genotype 1b, UniProt Q9WMX2); assay: HCV protease assay (SensoLyte 620 HCV Protease Assay kit); format: biochemical; conditions: 1.2 nM HCV NS3-NS4A protease, 60 min at room temperature
T1 construct: using 1.2 nM HCV NS3-NS4A protease, which was obtained according to Taremi et al; made in house
Protocol: Measurement of the inhibitory effect of compounds on HCV protease activity was performed with the SensoLyte™ 620 HCV Protease Assay kit from AnaSpec, Inc. (San Jose, Calif.) under conditions described by the supplier using 1.2 nM HCV NS3-NS4A protease, which was obtained according to Taremi et al. (Protein Science, 1998, 7, 2143-2149). The compounds were tested at a variety of concentrations in assay buffer containing a final DMSO concentration of 5%. Reactions were allowed to proceed for 60 min at room temperature and fluorescence measurements were recorded with a Tecan Infinity Spectrofluorimeter. The IC50 values were determined from the percent inhibition versus concentration data using a sigmoidal non-linear regression analysis based on four parameters with Tecan Magellan software.

[3] = system: JFH-1 HCV virus (genotype 2a); assay: Genotype 2a infectious virus assay (JFH-1, HCV core ELISA in HPC cells); format: cell-based; conditions: Hepatitis C virus, 120 h, 5 days
Protocol: The genotype 2a infectious virus assay measures the ability of a test compound to inhibit HCV replication in cell culture after 5 days of treatment at the time of HCV genotype 2a virus infection of a permissive human hepatoma cell line (HPC cells). The inhibition of HCV replication was measured by quantification of HCV core protein expression by an enzyme-linked immunosorbent assay (ELISA). Briefly, HPC cells were grown in DMEM containing glucose, L-glutamine and sodium pyruvate, 10% FBS, 100 IU/mL penicillin, 100 μg/mL streptomycin, 2 mM GlutaMAX, and non-essential amino acids. GlutaMAX was obtained from Invitrogen, Corp.; all other media reagents were obtained from Mediatech, Inc. For dose-response testing, ninety-six-well plates were seeded with HPC cells at a density of 2.5×10^3 cells/well in a volume of 50 μL, and incubated at 37° C./5% CO2. Three hours after plating, 50 μL of ten 5-fold serial dilutions of compound and 100 μL of genotype 2a virus were added, and cell cultures were incubated at 37° C./5% CO2. […]
The HCV in vitro infection core ELISA assay measures the ability of a test compound to inhibit replication of an infectious HCV (strain JFH-1; genotype 2a) in cell culture. […] The readout of the assay is quantification of HCV core protein by ELISA 5 days post infection with JFH-1 virus and treatment with a test compound. […]

T1 sequence (Q9WMX2 1027-1208): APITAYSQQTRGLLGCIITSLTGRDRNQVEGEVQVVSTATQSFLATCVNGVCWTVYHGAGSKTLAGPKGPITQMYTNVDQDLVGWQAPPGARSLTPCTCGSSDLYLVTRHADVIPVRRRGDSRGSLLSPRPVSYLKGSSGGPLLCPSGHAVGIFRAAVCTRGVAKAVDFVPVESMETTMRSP

Row | Compound | Fold Change, A156T replicon ([1]; EC50 fold change, A156T replicon) | EC50 ([1]; Hepatitis C virus, 96 h, read-out: EC50(nm), A156T replicon) | IC50 [2] | EC50 [3]
1 | COc1ccc2c(O[C@H]3CC[C@H]4C(=O)N(C)CCCC/C=C\[C@@H]5C[C@@]5(C(=O)NS(=O)(=O)C5(C)CC5)NC(=O)[C@@H]4C3)cc(-c3nc(C(F)(F)F)cs3)nc2c1C [Compound 51] | 20-95 | 25 to 40 nM | < 1000 nM | < 1000 nM
2 | C#Cc1csc(-c2cc(O[C@H]3CC[C@H]4C(=O)N(C)CCCC/C=C\[C@@H]5C[C@@]5(C(=O)NS(=O)(=O)C5(C)CC5)NC(=O)[C@@H]4C3)c3ccc(OC)c(C)c3n2)n1 [Compound 52, (1aR,3aR,5S,7aR,15aS,Z)-5-(2-(4-ethynylthiazol-2-yl)-7-methoxy-8-methylquinolin-4-yloxy)-9-methyl-N-(1-methylcyclopropylsulfonyl)-3,8-dioxo-1a,2,3,3a,4,5,6,7,7a,8,9,10,11,12,13,15a-hexadecahydro-1H-benzo[c]cyclopropa[g][1,6]diazacyclotetradecine-1a-carboxamide] |  |  |  | < 1000 nM

Reference: patent US9284307B2, “Macrocyclic serine protease inhibitors” (Idenix Pharmaceuticals LLC, priority 2009, dated 2016)
